Results from US20230303497A1, “BENZYLAMINE OR BENZYL ALCOHOL DERIVATIVE AND USES THEREOF” (CHENGDU HYPERWAY PHARMACEUTICALS CO., LTD, priority 2020, published 2023).
Read-outs that look alike come from different tables or passages of the source.

Tests used:
hERG ion channels = hERG ion channels (Homo sapiens (Human), UniProt Q12809); experiment: Inhibition activity test on hERG ion channels in HEK293 cells (cardiac safety, patch clamp)
Method: This experiment is used as a cardiac safety test of compound.
The reagents are purchased from Sigma (St. Louis, MO) except NaOH and KOH for acid-base titration. Final concentrations of tested solutions are prepared on the testing day and dissolved in extracellular fluid. […] All the test solutions and the control solutions contain 0.3% DMSO. Intracellular fluid (mM) contains: K Aspartate, 130; MgCl2, 5; EGTA 5; HEPES, 10; Tris-ATP 4; pH 7.2 (KOH titration).
Cells: all experiments is performed at room temperature. Each cell itself is taken as the corresponding control.
Compounds are all perfused using a perfusion system that utilizes the gravity. At least two cells are tested per concentration. After current stabilization (or 5 minutes), the change in current magnitude before and after the use of the compound is compared to calculate the blocking effect of the compound.
The method of operation is the same as that of the test compound.
Electrophysiology: Transfer the Cells to the perfusion tank and perfuse with extracellular fluid. The intracellular fluid (mM) contains: K Aspartate, 130; MgCl2, 5; EGTA 5; HEPES, 10; Tris-ATP 4; pH 7.2 (KOH titration). The intracellular fluid is stored in small quantities in portions in a −80° C. refrigerator, and melt on the day of the experiment. Electrodes are drawn with PC-10 (Narishige, Japan). Recording is performed with whole-cell diaphragm clamp. Noise is filtered with one-fifth of the sampling frequency.
This process is repeated every 20 seconds. The hERG tail current is the pure hERG current. The maximum tail current triggered by the second square wave is detected, and when the current is stabilized, the test compound is perfused. The strength of the block is calculated when the response is stabilized.

human NaV1.8 ion channel = human NaV1.8 ion channel (Homo sapiens (Human), UniProt Q9Y5Y9); experiment: Compound inhibition activity on human NaV1.8 ion channel in HEK293 cells (whole-cell patch clamp); assay type: cell-based; conditions: 100 nm concentration, HEK293 cells, resting protocol
NaV1.6 = NaV1.6 (Homo sapiens (Human), UniProt Q9UQD0); experiment: Selectivity test for Nav ion channel subtypes: NaV1.6 (HEK293, patch clamp); assay type: cell-based; conditions: 1 uM; HEK293 cells
Method: (§1) Test Case 3: Compound Selectivity Test for Nav Ion Channel Subtypes
(§2) The aim of this test is to investigate effect of compounds on human Na ion channel cells expressed in steady-state (NaV1.1, NaV1.3, NaV1.4, NaV1.5, NaV1.6, NaV1.7). After Na ion currents is stabilized, the effect can be obtained by comparing the magnitude of Na channel currents before and after the application of the compounds.
(§3) The test compound is stored at a concentration of 9 mM in dimethyl sulfoxide (DMSO), and on the day of testing, dissolve in extracellular solution, then prepare to a screening concentration of 1 uM.
(§4) All experiments are performed at room temperature. Each cell itself is taken as the corresponding control.
(§5) At least one cell is tested per concentration.
(§6) HEK293 cells steadily expressing NaV1.1-, NaV1.3-, NaV1.4-, NaV1.5-, NaV1.6-ion channels; CHO cells expressing steadily NaV1.7 ion channel.
(§7) The intracellular fluid (mM) is: Aspartic acid, 140; MgCl2, 2; EGTA 11; HEPES, 10; pH 7.2 (CsOH titration). […] Electrodes are drawn with PC-10 (Narishige, Japan). Recording is performed with whole-cell diaphragm clamp.
(§8) Cells are clamped at −80 mV and then depolarized to −10 mV with a sustained 10 ms square wave to obtain Na ion channel currents (see the FIGURE). This process is repeated every 5 seconds. […] The strength of the block is calculated after the response is stabilized.

NaV1.1 = NaV1.1 (Homo sapiens (Human), UniProt P35498); experiment: Selectivity test for Nav ion channel subtypes: NaV1.1 (HEK293, patch clamp); assay type: cell-based; conditions: 1 uM; HEK293 cells
Method: as §1, §2, §3, §4, §5, §6, §7, §8

NaV1.5 = NaV1.5 (Homo sapiens (Human), UniProt Q14524); experiment: Selectivity test for Nav ion channel subtypes: NaV1.5 (HEK293, patch clamp); assay type: cell-based; conditions: 1 uM; HEK293 cells
Method: as §1, §2, §3, §4, §5, §6, §7, §8

NaV1.7 = NaV1.7 (Homo sapiens (Human), UniProt Q15858); experiment: Selectivity test for Nav ion channel subtypes: NaV1.7 (CHO cells, patch clamp); assay type: cell-based; conditions: 1 uM
Chain of NaV1.7 (Q15858 whole entry): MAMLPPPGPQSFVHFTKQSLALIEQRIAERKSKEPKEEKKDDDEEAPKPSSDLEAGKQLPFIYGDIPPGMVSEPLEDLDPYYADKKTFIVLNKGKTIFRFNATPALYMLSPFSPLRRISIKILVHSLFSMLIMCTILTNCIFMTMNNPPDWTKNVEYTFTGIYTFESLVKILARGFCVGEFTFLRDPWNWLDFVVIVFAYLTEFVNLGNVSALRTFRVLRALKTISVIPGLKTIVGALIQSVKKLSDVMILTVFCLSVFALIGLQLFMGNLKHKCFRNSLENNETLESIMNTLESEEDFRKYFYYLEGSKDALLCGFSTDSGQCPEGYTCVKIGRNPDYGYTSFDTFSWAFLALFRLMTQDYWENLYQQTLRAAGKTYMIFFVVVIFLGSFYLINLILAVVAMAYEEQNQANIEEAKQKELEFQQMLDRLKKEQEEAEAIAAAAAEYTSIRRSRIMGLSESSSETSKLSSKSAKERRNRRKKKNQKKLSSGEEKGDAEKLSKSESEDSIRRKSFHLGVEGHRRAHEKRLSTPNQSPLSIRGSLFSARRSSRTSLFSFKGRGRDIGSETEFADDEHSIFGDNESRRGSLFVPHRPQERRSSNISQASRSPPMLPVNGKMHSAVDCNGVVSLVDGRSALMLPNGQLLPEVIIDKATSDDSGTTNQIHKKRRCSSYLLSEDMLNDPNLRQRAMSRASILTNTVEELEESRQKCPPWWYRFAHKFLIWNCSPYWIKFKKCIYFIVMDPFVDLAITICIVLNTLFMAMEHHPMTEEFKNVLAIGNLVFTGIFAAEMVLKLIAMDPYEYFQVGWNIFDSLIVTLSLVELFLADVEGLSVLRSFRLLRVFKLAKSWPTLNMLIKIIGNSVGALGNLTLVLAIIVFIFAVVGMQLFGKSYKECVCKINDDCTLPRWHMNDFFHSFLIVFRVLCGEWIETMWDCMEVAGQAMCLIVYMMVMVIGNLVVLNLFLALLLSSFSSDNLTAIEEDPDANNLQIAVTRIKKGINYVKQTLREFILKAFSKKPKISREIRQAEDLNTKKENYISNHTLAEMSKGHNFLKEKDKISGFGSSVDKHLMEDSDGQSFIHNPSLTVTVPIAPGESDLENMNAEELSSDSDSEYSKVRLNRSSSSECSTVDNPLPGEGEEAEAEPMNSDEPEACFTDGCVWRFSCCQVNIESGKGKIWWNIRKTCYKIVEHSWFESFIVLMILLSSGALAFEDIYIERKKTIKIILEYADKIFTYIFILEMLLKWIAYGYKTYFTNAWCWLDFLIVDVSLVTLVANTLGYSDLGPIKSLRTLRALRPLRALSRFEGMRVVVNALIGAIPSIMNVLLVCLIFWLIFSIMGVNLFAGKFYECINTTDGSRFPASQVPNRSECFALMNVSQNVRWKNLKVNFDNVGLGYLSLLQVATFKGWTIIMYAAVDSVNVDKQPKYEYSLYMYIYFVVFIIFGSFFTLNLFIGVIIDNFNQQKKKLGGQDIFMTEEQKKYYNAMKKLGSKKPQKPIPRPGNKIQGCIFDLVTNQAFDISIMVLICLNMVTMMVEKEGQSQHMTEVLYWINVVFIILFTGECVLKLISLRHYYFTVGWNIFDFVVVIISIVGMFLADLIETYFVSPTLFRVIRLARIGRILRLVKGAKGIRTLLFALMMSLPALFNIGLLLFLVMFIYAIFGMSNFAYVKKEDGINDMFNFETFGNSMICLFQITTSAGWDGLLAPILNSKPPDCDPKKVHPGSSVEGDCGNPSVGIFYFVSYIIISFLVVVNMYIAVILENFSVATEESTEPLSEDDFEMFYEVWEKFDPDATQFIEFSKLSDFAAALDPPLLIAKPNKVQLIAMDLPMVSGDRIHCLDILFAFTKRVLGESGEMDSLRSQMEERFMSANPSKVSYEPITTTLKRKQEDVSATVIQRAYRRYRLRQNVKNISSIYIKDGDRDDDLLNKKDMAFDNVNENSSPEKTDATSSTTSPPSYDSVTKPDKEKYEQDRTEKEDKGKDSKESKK
Method: as §1, §2, §3, §4, §5, §6, §7, §8

NaV1.3 = NaV1.3 (Homo sapiens (Human), UniProt Q9NY46); experiment: Selectivity test for Nav ion channel subtypes: NaV1.3 (HEK293, patch clamp); assay type: cell-based; conditions: 1 uM; HEK293 cells
Method: as §1, §2, §3, §4, §5, §6, §7, §8

NaV1.4 = NaV1.4 (Homo sapiens (Human), UniProt P35499); experiment: Selectivity test for Nav ion channel subtypes: NaV1.4 (HEK293, patch clamp); assay type: cell-based; conditions: 1 uM; HEK293 cells
Chain of NaV1.4 (P35499 whole entry): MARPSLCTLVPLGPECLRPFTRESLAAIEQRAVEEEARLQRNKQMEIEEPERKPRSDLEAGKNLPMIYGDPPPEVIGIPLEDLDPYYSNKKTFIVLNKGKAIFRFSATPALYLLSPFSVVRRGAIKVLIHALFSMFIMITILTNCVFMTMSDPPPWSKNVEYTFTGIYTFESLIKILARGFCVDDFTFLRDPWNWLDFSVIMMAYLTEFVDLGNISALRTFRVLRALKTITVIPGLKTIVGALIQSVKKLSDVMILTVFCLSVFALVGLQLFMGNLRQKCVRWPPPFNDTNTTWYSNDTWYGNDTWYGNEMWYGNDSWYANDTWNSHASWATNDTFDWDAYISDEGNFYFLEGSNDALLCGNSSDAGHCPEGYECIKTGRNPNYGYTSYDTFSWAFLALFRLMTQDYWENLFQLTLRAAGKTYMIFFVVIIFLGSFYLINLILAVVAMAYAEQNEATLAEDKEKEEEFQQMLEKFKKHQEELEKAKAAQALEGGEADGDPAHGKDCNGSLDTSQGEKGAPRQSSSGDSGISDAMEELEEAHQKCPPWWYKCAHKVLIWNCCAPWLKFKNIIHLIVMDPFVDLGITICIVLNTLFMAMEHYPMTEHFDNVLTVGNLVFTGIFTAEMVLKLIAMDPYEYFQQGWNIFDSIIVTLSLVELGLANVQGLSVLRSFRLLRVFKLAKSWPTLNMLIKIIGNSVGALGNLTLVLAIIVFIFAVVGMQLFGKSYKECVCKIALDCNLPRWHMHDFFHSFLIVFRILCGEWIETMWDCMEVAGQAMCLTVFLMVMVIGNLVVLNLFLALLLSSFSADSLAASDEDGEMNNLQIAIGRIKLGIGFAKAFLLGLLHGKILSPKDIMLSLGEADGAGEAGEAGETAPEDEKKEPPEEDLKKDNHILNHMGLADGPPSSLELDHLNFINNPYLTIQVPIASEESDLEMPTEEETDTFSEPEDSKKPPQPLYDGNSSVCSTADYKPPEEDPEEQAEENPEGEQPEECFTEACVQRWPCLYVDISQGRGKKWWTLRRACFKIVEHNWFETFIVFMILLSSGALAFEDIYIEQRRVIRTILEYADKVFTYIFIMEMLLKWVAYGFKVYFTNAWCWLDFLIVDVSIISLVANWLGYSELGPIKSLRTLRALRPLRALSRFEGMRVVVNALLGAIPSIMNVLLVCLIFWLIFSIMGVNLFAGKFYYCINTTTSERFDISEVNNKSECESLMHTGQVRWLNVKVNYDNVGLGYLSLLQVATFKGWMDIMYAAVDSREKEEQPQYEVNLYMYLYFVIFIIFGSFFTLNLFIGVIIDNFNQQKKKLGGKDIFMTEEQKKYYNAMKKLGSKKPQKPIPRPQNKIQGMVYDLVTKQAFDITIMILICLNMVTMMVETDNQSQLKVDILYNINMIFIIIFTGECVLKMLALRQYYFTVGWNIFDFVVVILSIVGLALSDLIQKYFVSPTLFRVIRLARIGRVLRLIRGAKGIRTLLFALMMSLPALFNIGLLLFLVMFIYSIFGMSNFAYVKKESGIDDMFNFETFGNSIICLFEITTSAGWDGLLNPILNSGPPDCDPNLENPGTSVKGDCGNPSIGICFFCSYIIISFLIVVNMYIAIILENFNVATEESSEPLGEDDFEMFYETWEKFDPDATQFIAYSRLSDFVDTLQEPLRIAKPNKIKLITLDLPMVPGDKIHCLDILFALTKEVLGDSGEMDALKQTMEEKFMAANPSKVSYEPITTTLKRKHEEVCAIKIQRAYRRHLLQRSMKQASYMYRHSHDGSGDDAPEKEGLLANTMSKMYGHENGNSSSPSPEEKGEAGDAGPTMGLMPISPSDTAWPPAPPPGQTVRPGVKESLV
Method: as §1, §2, §3, §4, §5, §6, §7, §8

[1] = In vivo pharmacokinetic testing of compounds in rats; conditions: male SD rats, single oral dose 100 mg/kg, plasma, VX-150 dosed as prodrug, active form analysed
Method: Test Case 4: In Vivo Pharmacokinetic Testing of Compounds in Rats
All SD rats in the test are male and are purchased from Shanghai Sippe-Bk Lab Animal Co., Ltd. Each compound is administered orally (100 mg/kg, 3 rats per group) at single dose to SD rats for pharmacokinetic study. The solutions are prepared on the same day of administration, e.g., the tested compound is suspended in 5% DMSO+95% saline, get vortexed for 2 min, and sonicated for 5 min to prepare a drug delivery system. The animals are fasted for 10-14 hours before oral administration, and resumed food 4 hours after administration. After oral administration by gavage in SD rats, pharmacokinetic samples are collected from jugular vein at the following time points: 0, 15 min, 30 min, 1 h, 2 h, 4 h, 6 h, 8 h and 24 h. Three whole blood samples are collected at each time point in a volume of about 0.2 mL and anticoagulated using sodium heparin. Blood samples are placed on ice immediately after collection and plasma is separated by centrifugation within 1 h (centrifugation conditions: 6800 rpm, 6 min, 2-8° C.). The collected plasma is stored in a −80° C. refrigerator prior to analysis.
In pharmacokinetic tests in rat, the control compound VX-150 is a prodrug (WO2015089361, compound 9), after administration, analysis is performed to test its active form (WO2014120808, compound 10). The aforementioned in vitro pharmacological tests are performed using the active ingredient (WO2014120808, compound 10).

[2] = read-out: Inhibition ratio of Nav1.8 (Activity of inhibition)
[3] = read-out: Inhibition ratio of compounds against Nav1.8 (Activity of inhibition)

Chain of hERG ion channels (Q12809 whole entry): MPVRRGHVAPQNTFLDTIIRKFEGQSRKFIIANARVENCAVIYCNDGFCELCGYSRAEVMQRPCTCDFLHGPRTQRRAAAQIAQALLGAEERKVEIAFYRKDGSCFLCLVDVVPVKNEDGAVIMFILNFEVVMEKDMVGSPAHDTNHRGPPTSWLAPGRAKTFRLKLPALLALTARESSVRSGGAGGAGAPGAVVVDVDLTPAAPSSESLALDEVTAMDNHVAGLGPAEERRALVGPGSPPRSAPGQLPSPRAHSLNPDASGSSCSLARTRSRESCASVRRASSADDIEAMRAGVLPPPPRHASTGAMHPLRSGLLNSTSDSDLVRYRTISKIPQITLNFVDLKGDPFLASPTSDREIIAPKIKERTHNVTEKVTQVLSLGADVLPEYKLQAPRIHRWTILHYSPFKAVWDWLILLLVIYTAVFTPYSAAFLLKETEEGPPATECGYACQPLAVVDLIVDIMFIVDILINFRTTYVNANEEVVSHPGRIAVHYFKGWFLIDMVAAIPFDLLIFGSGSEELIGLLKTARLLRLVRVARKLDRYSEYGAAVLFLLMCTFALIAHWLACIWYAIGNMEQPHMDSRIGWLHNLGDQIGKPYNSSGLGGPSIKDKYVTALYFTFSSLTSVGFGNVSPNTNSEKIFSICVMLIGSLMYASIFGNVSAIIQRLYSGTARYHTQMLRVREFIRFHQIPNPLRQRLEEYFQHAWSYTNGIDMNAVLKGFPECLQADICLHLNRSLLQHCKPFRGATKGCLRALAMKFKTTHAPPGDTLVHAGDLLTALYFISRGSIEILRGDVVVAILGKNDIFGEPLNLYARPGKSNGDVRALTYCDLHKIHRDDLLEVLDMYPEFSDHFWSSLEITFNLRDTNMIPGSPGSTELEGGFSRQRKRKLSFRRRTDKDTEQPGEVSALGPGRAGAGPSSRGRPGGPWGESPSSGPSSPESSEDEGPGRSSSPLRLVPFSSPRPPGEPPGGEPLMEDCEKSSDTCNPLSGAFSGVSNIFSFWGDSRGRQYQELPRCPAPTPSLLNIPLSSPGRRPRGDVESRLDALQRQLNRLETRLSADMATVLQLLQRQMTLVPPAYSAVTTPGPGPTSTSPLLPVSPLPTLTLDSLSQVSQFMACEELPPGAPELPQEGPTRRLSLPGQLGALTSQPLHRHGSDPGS

`Cc1cc(F)ccc1Oc1ccc(C(F)(F)F)cc1C(=O)Nc1ccc(F)c(C(N)CC(N)=O)c1` (stereo not drawn) [Example 1, N-(3-(1,3-diamino-3-oxopropyl)-4-fluorophenyl)-2-(4-fluoro-2-methylphenoxy)-5-(trifluoromethyl) benzamide] showed an IC50 (hERG ion channels; read-out: IC50 for hERG inhibited by compounds, HEK293 cells, hERG tail current) of 3.2 µM.
In the case of `Cc1cc(F)ccc1Oc1ccc(C(F)(F)F)cc1C(=O)Nc1ccc(F)c(C(N)C(N)=O)c1` (stereo not drawn) [Example 36], the IC50 (hERG ion channels; human, pH 7.4) is reported as 10.5 µM and the inhibition at 0.1 µM (human NaV1.8 ion channel; [2]) is reported as > 80%.
Work on `Cc1cc(F)ccc1Oc1ccc(C(F)(F)F)cc1C(=O)Nc1ccc(F)c(C(N)CCO)c1` (stereo not drawn) [Example 38] yielded an IC50 (hERG ion channels; human, pH 7.4) of 3 µM and an inhibition at 0.1 µM (human NaV1.8 ion channel; [2]) of 50 to 80%.
In the case of `Cc1cc(F)ccc1Oc1cc(C2CC2)c(C(F)(F)F)cc1C(=O)Nc1ccnc(OC[C@H](O)CO)c1` [Example 104], the IC50 (hERG ion channels; human, pH 7.4) is reported as 3.8 µM, the inhibition at 0.1 µM (human NaV1.8 ion channel; [3]) is reported as > 80% and the “Inhibition ratio on Nav1.6” value (NaV1.6) is reported as 2.8%. For the same molecule, the “Inhibition ratio on Nav1.1” value (NaV1.1) was 1.5%, the “Inhibition ratio on Nav1.5” value (NaV1.5) was <1% and the “Inhibition ratio on Nav1.7” value (NaV1.7) was 1.3%. For the same molecule, the “Inhibition ratio on Nav1.3” value (NaV1.3) was 4.3%, the “Inhibition ratio on Nav1.4” value (NaV1.4) was <1% and the half-life ([1]; rat) was 5.1 h. It also gave an AUC ([1]; rat, read-out: AUC) of 58000 ng·h/mL and a Cmax ([1]; rat, read-out: Cmax) of 5140 ng/mL.
With `Cc1cc(F)ccc1Oc1cc(C2CC2)c(C(F)(F)F)cc1C(=O)Nc1cnnc(OC[C@H](O)CO)c1` [Example 112] the inhibition at 0.1 µM (human NaV1.8 ion channel; [3]) was 20 to 50%, the half-life ([1]; rat) was 6.3 h and the AUC ([1]; rat, read-out: AUC) was 115000 ng·h/mL. The Cmax ([1]; rat, read-out: Cmax) was 8270 ng/mL.
For `Cc1cc(F)ccc1Oc1cc(C(F)(F)F)c(Cl)cc1C(=O)Nc1ccnc(OC[C@H](O)CO)c1` [Example 114, (R)-5-chloro-N-(2-(2,3-dihydroxypropoxy)pyridin-4-yl)-2-(4-fluoro-2-methylphenoxy)-4-(trifluoromethyl) benzamide], the IC50 (hERG ion channels) was 22.3 µM, the inhibition at 0.1 µM (human NaV1.8 ion channel; [3]) was > 80% and the “Inhibition ratio on Nav1.6” value (NaV1.6) was 8.3%. For the same molecule, the “Inhibition ratio on Nav1.1” value (NaV1.1) was 4.8%, the “Inhibition ratio on Nav1.5” value (NaV1.5) was 5.9% and the “Inhibition ratio on Nav1.7” value (NaV1.7) was <1%. For the same molecule, the “Inhibition ratio on Nav1.3” value (NaV1.3) was 4.4%, the “Inhibition ratio on Nav1.4” value (NaV1.4) was 2.7% and the half-life ([1]; rat) was 11.7 h. It also gave an AUC ([1]; rat, read-out: AUC) of 154000 ng·h/mL and a Cmax ([1]; rat, read-out: Cmax) of 7640 ng/mL.
In the case of `Cc1cc(F)ccc1Oc1cc(C(F)(F)F)c(Cl)cc1C(=O)Nc1cnnc(OC[C@H](O)CO)c1` [Example 116], the IC50 (hERG ion channels; human, pH 7.4) is reported as 15.6 µM, the inhibition at 0.1 µM (human NaV1.8 ion channel; [3]) is reported as 50 to 80% and the “Inhibition ratio on Nav1.6” value (NaV1.6) is reported as 2.6%. For the same molecule, the “Inhibition ratio on Nav1.1” value (NaV1.1) was 1.2%, the “Inhibition ratio on Nav1.5” value (NaV1.5) was <1% and the “Inhibition ratio on Nav1.7” value (NaV1.7) was <1%. For the same molecule, the “Inhibition ratio on Nav1.3” value (NaV1.3) was 3.7%, the “Inhibition ratio on Nav1.4” value (NaV1.4) was <1% and the half-life ([1]; rat) was 8.7 h. For the same molecule, the AUC ([1]; rat, read-out: AUC) was 42500 ng·h/mL and the Cmax ([1]; rat, read-out: Cmax) was 2570 ng/mL.
In the case of `Cc1cc(F)ccc1Oc1cc(C(F)(F)F)c(Cl)cc1C(=O)Nc1ccc(F)c(OC[C@H](O)CNC(=O)CO)c1` [Example 117], the IC50 (hERG ion channels) is reported as 6 µM, the inhibition at 0.1 µM (human NaV1.8 ion channel; [3]) is reported as > 80% and the “Inhibition ratio on Nav1.6” value (NaV1.6) is reported as <1%. The “Inhibition ratio on Nav1.1” value (NaV1.1) was <1%, the “Inhibition ratio on Nav1.5” value (NaV1.5) was 5.0% and the “Inhibition ratio on Nav1.7” value (NaV1.7) was <1%. For the same molecule, the “Inhibition ratio on Nav1.3” value (NaV1.3) was 1.2%, the “Inhibition ratio on Nav1.4” value (NaV1.4) was <1% and the half-life ([1]; rat) was 3 h. For the same molecule, the AUC ([1]; rat, read-out: AUC) was 114000 ng·h/mL and the Cmax ([1]; rat, read-out: Cmax) was 9570 ng/mL.
With `Cc1cc(F)ccc1Oc1cc(C2CC2)c(C(F)(F)F)cc1C(=O)Nc1ccc(F)c(OC[C@H](O)CNC(=O)CO)c1` [Example 119] the IC50 (hERG ion channels; human, pH 7.4) was 4.2 µM, the inhibition at 0.1 µM (human NaV1.8 ion channel; [3]) was > 80% and the “Inhibition ratio on Nav1.6” value (NaV1.6) was 5.1%. For the same molecule, the “Inhibition ratio on Nav1.1” value (NaV1.1) was <1%, the “Inhibition ratio on Nav1.5” value (NaV1.5) was 2.8% and the “Inhibition ratio on Nav1.7” value (NaV1.7) was <1%. The “Inhibition ratio on Nav1.3” value (NaV1.3) was <1%, the “Inhibition ratio on Nav1.4” value (NaV1.4) was 1.4% and the half-life ([1]; rat) was 1.9 h. For the same molecule, the AUC ([1]; rat, read-out: AUC) was 44500 ng·h/mL and the Cmax ([1]; rat, read-out: Cmax) was 5190 ng/mL.
For `Cc1cc(F)ccc1Oc1cc(C(F)(F)F)ccc1C(=O)Nc1ccn(COP(=O)(O)O)c(=O)c1` [VX-150, reference compound], the IC50 (hERG ion channels) was 7 µM, the “Inhibition ratio of Nav1.8 (Activity of inhibition)” value (human NaV1.8 ion channel) was “B (80 > B >= 50)” and the “Inhibition ratio on Nav1.6” value (NaV1.6) was 1.7%. The “Inhibition ratio on Nav1.1” value (NaV1.1) was <1%, the “Inhibition ratio on Nav1.5” value (NaV1.5) was 15.4% and the “Inhibition ratio on Nav1.7” value (NaV1.7) was 8.7%. The “Inhibition ratio on Nav1.3” value (NaV1.3) was 2.2%, the “Inhibition ratio on Nav1.4” value (NaV1.4) was 3.6% and the AUC [1] was 13859 ng·h/mL. It also gave a Cmax [1] of 1176 ng/mL and a T1/2 [1] of 2.2 h.
